Entries after “also recorded” stand apart in the source; their conditions may differ.
Legend:
Obese Zucker Rats [1] = assay: Balloon injury of the common carotid artery, intimal media ratio; assay type: in vivo; conditions: 5 mg/kg/daily injected for 1 week before injury, sacrificed two weeks later, FIG. 13
Experimental: FIG. 13 illustrates the effect of D4F on balloon injury of the carotid artery. Sixteen week old Obese Zucker Rats were injected with D-4F (5 mg/kg/daily) for 1 week at which time they underwent balloon injury of the common carotid artery. Two weeks later the rats were sacrificed and the intimal media ratio determined.
Sixteen week old Obese Zucker Rats were injected with D-4F (5 mg/kg/daily) for 1 week at which time they underwent balloon injury of the common carotid artery. Two weeks later the rats were sacrificed and the intimal media ratio determined.

ApoE null mice [2] = assay: HDL and pre-beta HDL from apoE null mice fed solution-phase (fragment) synthesized D-4F: inhibition of LDL-induced monocyte chemotaxis; assay type: in vivo; conditions: apoE null mice fed 5 micrograms solution-phase/fragment-synthesized D-4F, bled at 12 hours; FIG. 15
Text: ApoE null mice were fed 5 micrograms of the D-4F synthesized as described above (Frgmnt) or the mice were given the same amount of mouse chow without D-4F (Chow). Twelve hours after the feeding was started, the mice were bled and their plasma was fractionated on FPLC.

Obese Zucker Rats [3] = assay: Plasma glucose and lipid hydroperoxides (LOOH) in Obese Zucker Rats; assay type: in vivo; conditions: Obese Zucker Rats 26 weeks, 5.0 mg/kg/day intraperitoneal, 10 days; FIG. 12
Experimental: Obese Zucker Rats 26 weeks of age were bled and then treated with daily intraperitoneal injections of D-4F (5.0 mg/kg/day). After 10 days the rats were bled again plasma glucose and lipid hydroperoxides (LOOH) were determined. *p=0.027; ** p=0.0017.

ApoE null mice [4] = assay: Protection against LDL-induced monocyte chemotactic activity by HDL from apo E null mice given oral peptides; assay type: in vivo; conditions: peptide in drinking water (D-4F 5-50, D-J336 20-50 μg per ml), 24 hrs, murine HDL at 100 μg cholesterol/ml
Experimental: FIG. 4 illustrates the effect of oral apoA-1 peptide mimetic and apoJ peptide on HDL protective capacity. ApoE null mice (4 per group) were provided with D-4F (designated as F) at 50, 30, 20, 10, 5 μg per ml of drinking water or apoJ peptide (designated as J) at 50, 30 or 20 μg per ml of drinking water. After 24 hrs blood was collected, plasma fractionated by FPLC and fractions containing LDL (designated as mLDL for murine LDL) and fractions containing HDL (designated as mHDL) were separately pooled and HDL protective capacity against LDL oxidation as determined by LDL-induced monocyte chemotactic activity was determined. For the assay controls the culture wells received no lipoproteins (no additions), mLDL alone (at 200 μg cholesterol/ml), or mLDL+standard normal human HDL (designated as Cont. h HDL, at 350 μg HDL cholesterol/ml).
For testing the murine HDL, mLDL together with murine HDL (+F mHDL or +J mHDL) were added to artery wall cell cultures. […] The murine HDL was used at 100 μg cholesterol/ml.

ApoE null mice [5] = assay: Trabecular bone mineral density in apoE null mice; assay type: in vivo; conditions: drinking water, 6 weeks
LDL receptor null mice = assay: HDL protective capacity in LDL receptor null mice given peptide in drinking water; assay type: in vivo; conditions: 0.25 or 0.5 mg per ml drinking water, 24 or 48 hrs, mouse HDL at 100 μg cholesterol/ml
Experimental: D-4F designated as F, or the apoJ peptide made from D amino acids (D-J336, designated as J) was added to the drinking water of LDL receptor null mice (4 per group) at 0.25 or 0.5 mg per ml of drinking water. After 24- or 48-hrs blood was collected from the mice and their HDL was isolated and tested for its ability to protect against LDL-induced monocyte chemotactic activity. Assay controls included culture wells that received no lipoproteins (no addition), or control human LDL alone (designated as LDL, 200 μg cholesterol/ml), or control LDL+control human HDL (designated as +HDL, 350 μg HDL cholesterol). For testing the mouse HDL, the control LDL was added together with mouse HDL (+F HDL or +J HDL) to artery wall cell cultures. The mouse HDL was added at 100 μg cholesterol/ml respectively.

[6] = system: mice fed an atherogenic diet; conditions: 20 μg daily injected; cited from earlier work
ApoE null mice [7] = assay: Ability of LDL from apoE null mice given oral peptides to induce monocyte chemotactic activity (LDL susceptibility to oxidation); assay type: in vivo; conditions: peptide in drinking water, 24 hrs
Experimental: FIG. 5 illustrates the effect of oral apo A-1 peptide mimetic and apoJ peptide on LDL susceptibility to oxidation. ApoE null mice (4 per group) were provided, in their drinking water, with D-4F (designated as F) at 50, 30, 20, 10, 5 μg per ml of drinking water or the apoJ peptide (D-J336 made from D amino acids and designated as J) at 50, 30 or 20 μg per ml of drinking water. After 24 hrs blood was collected from the mice shown in FIG. 4, plasma fractionated by FPLC and fractions containing LDL (designated as mLDL for murine LDL) were pooled and LDL susceptibility to oxidation as determined by induction of monocyte chemotactic activity was determined. For the assay controls the culture wells received no lipoproteins (no additions), mLDL alone (at 200 μg cholesterol/ml), or mLDL+standard normal human HDL (designated as Cont. h HDL, 350 μg HDL cholesterol).
Murine LDL, mLDL, from mice that received the D-4F (F mLDL) or those that received the apoJ peptide (J mLDL) were added to artery wall cell cultures.

[8] = system: Human aortic endothelial cells; assay: Prevention of LDL-induced monocyte chemotactic activity in vitro, co-incubation; assay type: cell-based; conditions: co-incubation with control human LDL 200 μg protein/ml, overnight; FIG. 1
Experimental: FIG. 1 illustrates a comparison of the effect of D-4F (Circulation 2002; 105:290-292) with the effect of an apoJ peptide made from D amino acids (D-J336, Ac-LLEQLNEQFNWVSRLANLTQGE-NH2, SEQ ID NO:13) on the prevention of LDL-induced monocyte chemotactic activity in vitro in a co-incubation. Human aortic endothelial cells were incubated with medium alone (no addition), with control human LDL (200 μg protein/ml) or control human LDL+control human HDL (350 μg HDL protein/ml). D-J336 or D-4F was added to other wells in a concentration range as indicated plus control human LDL (200 μg protein/ml). Following overnight incubation, the supernatants were assayed for monocyte chemotactic activity.

[9] = system: Human aortic endothelial cells; assay: Prevention of LDL-induced monocyte chemotactic activity by pre-treatment (pre-incubation) of artery wall cells; assay type: cell-based; conditions: 6 hrs pre-incubation, D-J336 4, 2, 1 μg/ml vs D-4F 100-12.5 μg/ml, FIG. 2
Experimental: FIG. 2 illustrates a comparison of the effect of D-4F with the effect of D-J336 on the prevention of LDL induced monocyte chemotactic activity in a pre-incubation. Human aortic endothelial cells were pre-incubated with D-J336 or D-4F at 4, 2, and 1 μg/ml for DJ336 or 100, 50, 25, and 12.5 μg/ml for D-4F for 6 hrs. The cultures were then washed and were incubated with medium alone (no addition), or with control human LDL (200 μg protein/ml), or with control human LDL+control human HDL (350 μg HDL protein/ml) as assay controls. The wells that were pre-treated with peptides received the control human LDL at 200 μg protein/ml. Following overnight incubation, the supernatants were assayed for monocyte chemotactic activity.

ApoE null mice [10] = assay: Protection against PAPC oxidation by HPODE by HDL from apo E null mice given oral peptides; assay type: in vivo; conditions: peptide in drinking water, 24 hrs, murine HDL at 100 μg cholesterol/ml
Experimental: FIG. 6 illustrates the effect of oral apoA-1 peptide mimetic and apoJ peptide on HDL protective capacity. ApoE null mice (4 per group) were provided with D-4F (designated as F) at 50, 30, 20, 10, 5 μg per ml of drinking water or apoJ peptide (D-J336 made from D amino acids and designated as J) at 50, 30 or 20 μg per ml of drinking water. After 24 hrs blood was collected, plasma fractionated by FPLC and fractions containing HDL (designated as mHDL) were pooled and HDL protective capacity against PAPC oxidation as determined by the induction of monocyte chemotactic activity was determined. For the assay controls the culture wells received no lipoproteins (no additions), the phospholipid PAPC at 20 μg/ml+HPODE, at 1.0 μg/ml, or PAPC+BPODE plus standard normal human HDL (at 350 μg HDL cholesterol/ml and designated as +Cont. h HDL).
For testing the murine HDL, PAPC+HPODE together with murine HDL (+F mHDL or +J mHDL) were added to artery wall cell cultures. […] The murine HDL was used at 100 μg cholesterol/ml.

ApoE null mice [11] = assay: Plasma paraoxonase (PON1) activity in apoE null mice given oral peptides; assay type: in vivo; conditions: apoE null mice, 50, 10 or 5 μg per ml drinking water, 24 hrs, FIG. 7
Experimental: ApoE null mice (4 per group) were provided with D-4F designated as F at 50, 10, 5 or 0 μg per ml of drinking water or apoJ peptide (D-J336 made from D amino acids and designated as J) at 50, 10 or 5 μg per ml of drinking water. After 24 hrs blood was collected and plasma was assayed for PON1 activity.

human volunteers = conditions: infusion into humans; cited from earlier work
human LDL = human LDL treated in vitro; cited from earlier work
mice = conditions: injection into mice; cited from earlier work

Ac-D-W-F-K-A-F-Y-D-K-V-A-E-K-F-K-E-A-F-NH2 (Ac-DWFKAFYDKVAEKFKEAF-NH2; also: D-amino acids, places not given here) [Peptide D-4F, apoA-I mimetic class A amphipathic helical peptide]
restenosis (intimal media ratio) after balloon injury of the common carotid artery (Obese Zucker Rats [1]): reduced
biological activity: producing HDL and pre-beta HDL that inhibit LDL-induced monocyte chemotaxis (ApoE null mice [2]): biologically active in mice; also recorded: very biologically active
symptoms of diabetes (plasma glucose) (Obese Zucker Rats [3]): effective in mitigating symptoms of diabetes
HDL protective capacity against LDL oxidation (LDL-induced monocyte chemotactic activity) (ApoE null mice [4]; FIG. 4): as active as 350 μg/ml of normal human HDL
trabecular bone mineral density (ApoE null mice [5]): dramatically increased
HDL protective capacity against LDL-induced monocyte chemotactic activity (LDL receptor null mice; FIG. 3): as active as 350 μg/ml of control human HDL

Ac-D-W-L-K-A-F-Y-D-K-V-F-E-K-F-K-E-F-F-NH2 (Ac-DWLKAFYDKVFEKFKEFF-NH2) [Peptide 5F]
LDL from PBS-injected mice compared with LDL from peptide-injected mice: oxidation and induction of monocyte chemotactic activity [6]: more readily oxidized and more readily induced monocyte chemotactic activity

Ac-LLEQLNEQFNWVSRLANLTQGE-NH2 [D-J336]
rendering LDL resistant to oxidation by human artery wall cells (induction of monocyte chemotactic activity) (ApoE null mice [7]; FIG. 5): slightly more potent than D-4F
rendering LDL resistant to oxidation by human artery wall cells (induction of monocyte chemotactic activity) (ApoE null mice [7]; FIG. 5, listed as DJ336): slightly more potent than D4F
in vitro concentration that prevents LDL-induced monocyte chemotactic activity by human artery wall cells, times less than the concentration required for D-4F [8]: 10 to 25 times
HDL protective capacity against LDL oxidation (LDL-induced monocyte chemotactic activity) (ApoE null mice [4]; FIG. 4): as active as 350 μg/ml of normal human HDL
HDL protective capacity against LDL oxidation (LDL-induced monocyte chemotactic activity) (ApoE null mice [4]; FIG. 4, listed as D-J peptide): as potent as D-4F
HDL protective capacity against LDL oxidation (LDL-induced monocyte chemotactic activity) (ApoE null mice [4]; FIG. 4, listed as DJ336): as potent as D4F
potency in preventing LDL oxidation by artery wall cells in vitro, times more potent than D-4F [9]: 10 to 25 times
potency in preventing LDL oxidation by artery wall cells in vitro, times more potent than D-4F ([9]; listed as ApoJ variant peptide): 10-25 times
causing HDL to inhibit oxidation of PAPC by HPODE (generation of monocyte chemotactic activity) (ApoE null mice [10]; FIG. 6): as potent as D-4F
causing HDL to inhibit oxidation of PAPC by HPODE (generation of monocyte chemotactic activity) (ApoE null mice [10]; FIG. 6, listed as DJ336): as potent as D4F
increasing plasma paraoxonase activity (ApoE null mice [11]): at least as potent as D-4F
increasing plasma paraoxonase activity (ApoE null mice [11]; listed as DJ336): at least as potent as D4F
HDL protective capacity against LDL-induced monocyte chemotactic activity (LDL receptor null mice; FIG. 3): as active as 350 μg/ml of control human HDL
HDL protective capacity against LDL-induced monocyte chemotactic activity (LDL receptor null mice; FIG. 3, listed as DJ335): essentially as effective as D4F

apo A-I: the major protein of HDL, apolipoprotein A-I
LDL isolated after infusion: oxidation by human artery wall cells and induction of monocyte chemotactic activity (human volunteers): resistant to oxidation by human artery wall cells and did not induce monocyte chemotactic activity
removal of seeding molecules (including HPODE and HPETE) from LDL (human LDL): removed seeding molecules from the LDL
LDL isolated after injection: oxidation by human artery wall cells and induction of monocyte chemotactic activity (mice): resistant to oxidation by human artery wall cells and did not induce monocyte chemotactic activity
